Here are results for 5 molecules from patent US5266571A, “Treatment of hemorrhoids with 5-HT2 antagonists” (priority 1992, dated 1993).

Test [1] deals with 5-HT1. Description: Receptor Blocking Profile, 5-HT1. Type of test: binding. The following applies: read-out: Receptor Blocking Profile IC-50, 5-HT1. As for the experimental part: (§1) The IC- 50 is the concentration that inhibits agonist binding to the
(§2) receptor by 50%. The better the blocker a compound is, the smaller is the
(§3) concentration thereof needed to block the receptor, i.e., the smaller the
(§4) IC-50, the better receptor blocker or antagonist the compound is.
(§5) The receptor blocking profile is determined as follows: Labeled 5-HT is mixed with a purified preparation containing the receptor. The amount of labeled material that attaches itself to the receptor and cannot be washed off is calculated. In a series of other similar tubes, the same quantity of labeled 5-HT is mixed with increasing concentrations of the antagonist which will antagonize the binding of 5-HT to the receptor. Decreasing quantities of the labeled material will bind to the receptor. The concentration of the antagonist that inhibits the binding by 50% is then calculated.

Test [2] has as its system human colon veins. The test is described as follows: Activity against 5-HT on the human colon in vitro (contraction of human colonic vein rings). The following applies: for blocking contractile effects of 5-HT on human colon rings, correlation with receptor blocking potencies: human colon rings in vitro, compared with the receptors tested; for IC50: read-out: IC-50, activity against 5-HT on the human colon in vitro.
Experimental: Human colonic vein rings were isolated from discarded human colon tissue following surgery (colostomy). The rings were prepared immediately after surgery and were suspended in buffered physiological saline. The contractions produced by the rings in response to the addition of 5-HT in vitro were measured. The effects of three selected 5-HT2 antagonist compounds on antagonizing 5-HT contractile effects were also determined.
This activity is determined as follows: Rings of human colon veins are prepared and hung in a tissue bath. The contractions of the rings are monitored. Adding 5-HT causes the rings to contract. Pre-addition of increasing concentrations of the antagonist result in lesser contractions. The amount of antagonist causing a 50% inhibition of the contractions is then calculated.

Test [3] deals with Dopamine-2 (Homo sapiens, UniProt P14416). Description: Receptor Blocking Profile, Dopamine-2. Type of test: binding.
Chain of Dopamine-2 (P14416 whole entry): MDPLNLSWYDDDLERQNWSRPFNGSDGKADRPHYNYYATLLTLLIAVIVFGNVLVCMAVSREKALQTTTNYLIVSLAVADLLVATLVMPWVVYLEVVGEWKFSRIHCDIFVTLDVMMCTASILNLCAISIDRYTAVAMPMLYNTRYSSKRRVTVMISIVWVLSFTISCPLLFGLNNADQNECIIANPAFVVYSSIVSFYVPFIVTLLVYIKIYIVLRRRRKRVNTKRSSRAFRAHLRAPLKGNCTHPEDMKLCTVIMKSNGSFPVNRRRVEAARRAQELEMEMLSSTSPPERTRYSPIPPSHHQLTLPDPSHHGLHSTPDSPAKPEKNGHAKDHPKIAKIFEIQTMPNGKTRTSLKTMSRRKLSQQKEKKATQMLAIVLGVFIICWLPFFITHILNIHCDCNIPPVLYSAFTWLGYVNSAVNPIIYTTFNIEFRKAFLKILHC
The target in test [4] is Alpha-receptor. Description: Receptor Blocking Profile, Alpha-receptor. It is filed as binding. The following applies: read-out: Receptor Blocking Profile IC-50, Alpha-receptor. As for the experimental part: as §1, §2, §3, §4, §5
Test [5] has as its target 5-HT2 (Homo sapiens, UniProt P28223). The test is described as follows: Receptor Blocking Profile: inhibition of labeled 5-HT binding, 5-HT2. As for the experimental part: as §5
Test [6] relates to 5-HT2 receptor. The following applies: background statement; cited from earlier work.
Test [7] concerns 5-HT2 receptor. The following applies: background statement; cited from earlier work. The source holds these as a separate data set.
Setting [8] is: human colon vein rings, antagonist pre-added, 5-HT-induced contraction.
The mark [9] stands for this setting: read-out: Receptor Blocking Profile IC-50, Dopamine-2.

Molecules are shown by their SMILES. Where a name gives a salt, the structure may show the parent alone. Read-outs that look alike come from different tables or passages of the source.

Chain of 5-HT2 (P28223 whole entry, species assumed): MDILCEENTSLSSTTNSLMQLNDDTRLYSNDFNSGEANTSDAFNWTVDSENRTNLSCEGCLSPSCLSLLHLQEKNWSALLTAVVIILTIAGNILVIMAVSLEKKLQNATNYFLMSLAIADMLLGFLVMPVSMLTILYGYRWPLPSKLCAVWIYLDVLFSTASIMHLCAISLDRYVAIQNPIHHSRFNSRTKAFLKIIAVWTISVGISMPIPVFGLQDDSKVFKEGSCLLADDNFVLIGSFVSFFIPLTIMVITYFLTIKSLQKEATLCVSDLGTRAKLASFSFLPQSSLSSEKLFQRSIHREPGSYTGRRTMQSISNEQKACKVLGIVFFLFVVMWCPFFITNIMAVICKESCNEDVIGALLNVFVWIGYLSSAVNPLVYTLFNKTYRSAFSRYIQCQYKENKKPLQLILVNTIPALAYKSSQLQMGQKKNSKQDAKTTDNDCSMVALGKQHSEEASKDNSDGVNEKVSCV

For `CN1CCCCC1CCc1ccccc1NC(=O)C=Cc1ccccc1.Cl` (centres unmarked) [Compound I, 2'[2-(1-methyl-2-piperidyl)ethyl] cinnamanilide hydrochloride], the IC50 is 22000 nM in test [1]; 2 nM in test [2] (setting [8]); above 1000 nM in test [3] (setting [9]); above 1000 nM in test [4]; 3.4 nM in test [5]. In addition, the “blocking contractile effects of 5-HT on human colon rings, correlation with receptor blocking potencies” value (“blocking contractile effects of 5-HT” for short) in test [2] was “correlated best with their 5-HT2 blocking potencies”.

Regarding `CCc1nn(CCCN2CCN(c3cccc(Cl)c3)CC2)c(=O)n1CCOc1ccccc1` [Compound II, 2-[3-[4-(3-chlorophenyl)-1-piperazinyl]propyl-5-ethyl-2,4-dihydro-4-(2-phenoxyethyl)-3H-1,2,4-triazol-3-one hydrochloride], the IC50 in test [1] is above 1000 nM; in test [2] (setting [8]), 10 nM; in test [3], above 1000 nM; in test [4], 160 nM. The “blocking contractile effects of 5-HT” value in test [2] is on record as “correlated best with their 5-HT2 blocking potencies”.

As for `O=C(c1ccc(F)cc1)C1CCN(CCn2c(=O)[nH]c3ccccc3c2=O)CC1` [ketanserin], in test [6], the “antagonism of binding of 5-HT to 5-HT2 receptor” value is “antagonized”. Also, the “inhibition of modulation of phosphatidylinositol turnover by 5-HT2 receptor” value in test [7] is recorded as “inhibited”.

Consider `O=C1CC2(CCCC2)CC(=O)N1CCCCN1CCN(c2nsc3ccccc23)CC1` [Compound III, 8-[4-[4-(1,2-benzisotriazol-3-yl)-1-piperazinyl]butyl]-8-azaspiro[4,5]decane-7,9-dione hydrochloride], for which the IC50 in test [1] was found to be 12.5 nM; in test [2] (Homo sapiens) it was 1 nM; in test [3] (setting [9]), 8.4 nM; in test [4], 47 nM; in test [5] (read-out: Receptor Blocking Profile IC-50, 5-HT2, displacement of labeled 5-HT), 1.7 nM. Besides, the “blocking contractile effects of 5-HT” value in test [2] is given as “correlated best with their 5-HT2 blocking potencies”.

Consider `CN1C[C@@H](NS(=O)(=O)N(C)C)C[C@@H]2c3cccc4c3c(cn4C)C[C@H]21` [mesulergine], for which the “antagonism of binding of 5-HT to 5-HT2 receptor” value in test [6] is listed as “antagonized”.
